Results reported in publication PMC5458078, “Global mapping of CARM1 substrates defines enzyme specificity and substrate recognition” (Nature Communications, 2017).
Where two headings read alike, the source gives them in different places.

Assays:
[1] = tested on: MCF7 CARM1 KO cells; test: Quantitative MS of ADMA-containing peptides in MCF7 CARM1 KO cells expressing CARM1 28-608 or CARM1 140-608, and in CARM1 KO; type: cell-based, human
[2] = tested on: MCF7 cells; test: Quantitative nanoLC-MS/MS (TMT) of ADMA-containing peptides, CARM1 KO vs parental; type: cell-based, human; set-up: Fold change KO/WT: scale not given here
[3] = ratio on log2 scale, mean of 3 replicates
[4] = MCF7, CARM1 knockout vs wild type, n = 3 each
[5] = difference of log2 means, CARM1 140-608 vs WT
[6] = difference of log2 means, KO vs WT
[7] = MCF7 CARM1 knockout vs wild type, 3 biological replicates each, values are on log2 scale
[8] = mean, CARM1 140-608 versus WT (log2 scale)
[9] = mean, CARM1 KO versus WT (log2 scale)
[10] = CARM1 140-608 vs WT, mean of 3 replicates (log2 scale)
[11] = KO vs WT, mean of 3 replicates (log2 scale)
[12] = MCF7, CARM1 KO (KO1-KO3) vs wild type (WT1-WT3)
[13] = CARM1 140-608 versus WT, difference of mean log2 values
[14] = CARM1 KO versus WT, difference of mean log2 values
[15] = CARM1 KO vs wild type MCF7 cells, 3 biological replicates each
[16] = ADMA-containing peptide, MCF7, CARM1 knockout (KO1-3) vs wild type (WT1-3), TMT 6-plex experiment #1
[17] = log2 scale ratio, mean of n = 3
[18] = ADMA-containing peptide, CARM1 knockout (KO) vs wild type (WT) MCF7 cells, 6-plex TMT experiment #1, three biological replicates each, sheet "MCF7"
[19] = CARM1 140-608 versus WT, mean of three replicates (log2)
[20] = KO versus WT, mean of three replicates (log2)

NPFLTGLSAPSPTNPFGAGEPGrPTLNQMR
CARM1 140-608/WT [1, 3]: -2.593 | KO/WT [1, 3]: -3.967 | Fold change KO/WT [2, 4]: -3.967

SPVAPPLGPrYAVFPK
CARM1 140-608/WT [1, 5]: 2.312 | KO/WT [1, 6]: -0.9897 | Fold change KO/WT [2, 7]: -2.706

CrQPAPPTSQPPrAQPFAQPPGPWPLSSPGPrLVFNR
CARM1 140-608/WT [1, 3]: -1.684 | KO/WT [1, 3]: -3.117 | Fold change KO/WT [2, 4]: -3.117

SPLLNQPVPELSHASLIANQSPFrAPLNVTNTAGTSLPSVDLLQK
CARM1 140-608/WT [1, 3]: -2.179 | KO/WT [1, 3]: -2.328 | Fold change KO/WT [2, 4]: -2.328

TVPMGGVrLVTPVTVSAVKPAVTTLVVK
CARM1 140-608/WT [1, 8]: -0.6483 | KO/WT [1, 9]: -2.889 | Fold change KO/WT [2, 4]: -2.889

GQLFrLPSALNR
CARM1 140-608/WT [1, 3]: -1.812 | KO/WT [1, 3]: -4.117 | Fold change KO/WT [2, 4]: -4.127

SVVESSAPGANNLQVNALVArLPLLLPR
CARM1 140-608/WT [1, 10]: -0.343 | KO/WT [1, 11]: -2.6091 | Fold change KO/WT [2, 12]: -2

FGGPVHHQAQrFR
CARM1 140-608/WT [1, 3]: -0.8111 | KO/WT [1, 3]: -0.6051 | Fold change KO/WT [2, 4]: -0.6051

MGTPVPRPPQDMGQIGVrTPLGPrVAAPVGPVGPTPTVLPMGAPVPrPR
CARM1 140-608/WT [1, 10]: -2.519 | KO/WT [1, 11]: -3.3286 | Fold change KO/WT [2, 12]: -2.803

ErDMQYVQR
CARM1 140-608/WT [1, 13]: 0.06744 | KO/WT [1, 14]: 1.019 | Fold change KO/WT [2, 15]: 1.019

QLQLQQQrMQLAQK
CARM1 140-608/WT [1]: -2.654 | KO/WT [1]: -4.55 | Fold change KO/WT [2, 7]: -4.395

TGALPGPGPLSNPrLGGLPGPGPMSNPR
CARM1 140-608/WT [1, 3]: -0.9797 | KO/WT [1, 3]: -1.901 | Fold change KO/WT ([2]; MCF7, CARM1 KO vs WT, three biological replicates each): -3.491

KSTLKPQPAPQAGPIPVAPIGTLKPQPQPVPASYTTASTSSrPTFNVQVK
CARM1 140-608/WT [1, 5]: -2.692 | KO/WT [1, 6]: -3.309 | Fold change KO/WT [2, 7]: -3.309

ACLTSGTPGPrAQLTAVTPDTR
CARM1 140-608/WT [1, 8]: -1.022 | KO/WT [1, 9]: -1.3764 | Fold change KO/WT [2, 7]: -1.3764

ANYNFrGMYNQrYHCPVPK
CARM1 140-608/WT [1]: -2.05 | KO/WT [1]: -3.002 | Fold change KO/WT [2, 16]: -3.002

LVPrLSVGAVSSKPTTPTIATPQTVSVPNK
CARM1 140-608/WT [1, 17]: -1.646 | KO/WT [1, 17]: -1.953 | Fold change KO/WT [2, 16]: -1.953

QALGSPLAGISTrLPGPGEPVPGPAGPAQFIELrHNVQK
CARM1 140-608/WT [1, 5]: -1.36 | KO/WT [1, 6]: -2.458 | Fold change KO/WT [2, 7]: -2.458

GPPPFPGVPLMSTPMGGPVPPPIrYGPPPQLCGPFGPrPLPPPFGPGMrPPLGLREFAPGVPPGrR
CARM1 140-608/WT [1, 5]: -1.1204 | KO/WT [1, 6]: -2.997 | Fold change KO/WT [2, 18]: -2.997

RGPLSQNGSFGPSPVSGGECSPPLTVEPPVrPLSATLNR
CARM1 140-608/WT [1, 5]: -1.692 | KO/WT [1, 6]: -2.59 | Fold change KO/WT [2, 18]: -2.59

TSVYrQQQPAVPQGQrLrQQLQAK
CARM1 140-608/WT [1, 5]: -3.863 | KO/WT [1, 6]: -4.228 | Fold change KO/WT [2, 18]: -4.048

LNASIAGLFPPQINIPLPPrPNLNR
CARM1 140-608/WT [1, 19]: -1.542 | KO/WT [1, 20]: -2.454 | Fold change KO/WT [2, 18]: -2.4198

SQGAQPQQVTLrLALR
CARM1 140-608/WT [1, 19]: -1.727 | KO/WT [1, 20]: -1.987 | Fold change KO/WT [2, 18]: -1.987

QAAPQMLQQQPPrLISVQTMQR
CARM1 140-608/WT [1, 13]: -0.6208 | KO/WT [1, 14]: -1.292 | Fold change KO/WT [2, 15]: -1.292

VrLPCQPLVPGPELRPSAAELK
CARM1 140-608/WT [1, 5]: -1.578 | KO/WT [1, 6]: -2.704 | Fold change KO/WT [2, 7]: -2.704

LINFQNHSPKPNGPVLPPHPQQLrYPPNQNIPR
CARM1 140-608/WT [1, 13]: 0.3327 | KO/WT [1, 14]: 0.1723 | Fold change KO/WT [2, 16]: 0.6311
